Assay results reported in patent publication US20180273528A1 (LES LABORATOIRES SERVIER, priority 2015, published 2018).

Key:
Format in all cases: biochemical
[1] = biological target: T1, DYRK1B (Homo sapiens, UniProt Q9Y463); assay: Kinase TR-FRET assay, DYRK1B; conditions: full-length human kinase, 10 μM ATP
T1 construct: full-length human kinases from Carna Biosciences; purchased Carna Biosciences 04-131
In short: (§1)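 Compounds tested at 0.1 nM to 30 μM in reaction buffer; reaction stopped with 10 mM EDTA. Phosphorylated MBP detected with 1 nM Europium-labelled anti-phospho-Thr232 antibody by TR-FRET.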

[2] = biological target: T2, CLK1 (Homo sapiens, UniProt P49759); assay: Kinase TR-FRET assay, CLK1; conditions: full-length human kinase, 10 μM ATP
T2 construct: full-length human kinases from Carna Biosciences; purchased Carna Biosciences 04-126
T2 sequence (P49759 1-526 isoform P49759-3): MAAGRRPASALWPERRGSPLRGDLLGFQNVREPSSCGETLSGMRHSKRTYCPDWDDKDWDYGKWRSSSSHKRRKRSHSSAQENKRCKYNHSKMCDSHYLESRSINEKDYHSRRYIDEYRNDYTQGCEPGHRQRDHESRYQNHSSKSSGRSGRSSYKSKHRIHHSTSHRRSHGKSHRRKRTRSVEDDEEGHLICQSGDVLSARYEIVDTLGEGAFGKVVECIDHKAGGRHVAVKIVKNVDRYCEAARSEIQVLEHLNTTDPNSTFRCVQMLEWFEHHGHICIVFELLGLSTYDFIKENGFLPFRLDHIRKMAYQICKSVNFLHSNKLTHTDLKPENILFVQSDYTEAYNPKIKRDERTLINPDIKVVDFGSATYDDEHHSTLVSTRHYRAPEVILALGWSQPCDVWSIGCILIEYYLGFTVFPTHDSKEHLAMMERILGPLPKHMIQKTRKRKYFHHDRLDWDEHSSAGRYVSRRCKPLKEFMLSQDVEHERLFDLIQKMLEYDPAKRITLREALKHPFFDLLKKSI
In short: as §1

[3] = biological target: T3, His-TEV-DYRK1A Kinase domain (aa127-485) (Homo sapiens, UniProt Q13627); assay: Kinase ADP assay (ADP Hunter), DYRK1A kinase domain; conditions: 20 μM ATP
T3 construct: His-TEV-DYRK1A Kinase domain (aa127-485); His tag (N); TEV protease cleavage site (N)
In short: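 Compounds incubated 10 min at 30 °C with 20 nM enzyme, 40 μM peptide substrate and 20 μM ATP in pH 7.4 Hepes buffer with 10 mM MgCl2. ADP formed detected by ADP Hunter Plus reagents after 20 min at 30 °C, fluorescence read at 590 nm.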

[4] = biological target: DYRK1A (Homo sapiens, UniProt Q13627); assay: Kinase TR-FRET assay, DYRK1A; design: full-length, wild-type human DYRK1A (NM_001396) with an HA tag; expressed in transfected cells; host or cells: human U2-OS osteosarcoma cells, transient transfection of a pcDNA3.1 plasmid; conditions: full-length human kinase, 10 μM ATP
In short: as §1

T1 sequence (Q9Y463 whole entry): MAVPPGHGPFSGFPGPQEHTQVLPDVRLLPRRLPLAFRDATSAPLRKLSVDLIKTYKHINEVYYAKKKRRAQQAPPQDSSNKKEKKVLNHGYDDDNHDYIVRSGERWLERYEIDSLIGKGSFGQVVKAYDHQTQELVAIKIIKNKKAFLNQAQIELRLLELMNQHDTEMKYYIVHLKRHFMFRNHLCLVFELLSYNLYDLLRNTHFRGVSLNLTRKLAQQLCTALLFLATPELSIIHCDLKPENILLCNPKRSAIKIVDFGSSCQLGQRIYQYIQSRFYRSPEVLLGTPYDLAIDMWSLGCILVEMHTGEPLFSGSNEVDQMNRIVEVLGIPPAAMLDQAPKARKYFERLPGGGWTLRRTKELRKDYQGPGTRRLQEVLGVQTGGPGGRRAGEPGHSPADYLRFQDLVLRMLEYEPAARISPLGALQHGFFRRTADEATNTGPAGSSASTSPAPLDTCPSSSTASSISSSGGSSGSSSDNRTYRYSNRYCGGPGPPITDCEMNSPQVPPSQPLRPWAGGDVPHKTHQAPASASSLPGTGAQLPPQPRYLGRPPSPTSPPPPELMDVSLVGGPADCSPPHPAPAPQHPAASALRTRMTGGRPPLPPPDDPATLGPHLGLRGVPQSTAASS

| SMILES | IC50 [1] [µM] | IC50 [2] [µM] | IC50 [3] [µM] | IC50 [4] [µM] |
| --- | --- | --- | --- | --- |
| Cc1nc2ccc(-c3cc(N)nc(N)c3)nc2n1C1CC1 [Example 9, 4-(3-cyclopropyl-2-methyl-3H-imidazo[4,5-b]pyridin-5-yl)pyridine-2,6-diamine] | 0.006 | 0.021 | 0.007 | 0.011 |
| Cc1nc2ccc(-c3cc(N)nc(N)c3)nc2n1Cc1ccoc1 [Example 42, 4-[3-(furan-3-ylmethyl)-2-methyl-3H-imidazo[4,5-b]pyridin-5-yl]pyridine-2,6-diamine] | 0.01 | 0.053 | 0.008 | 0.012 |
| Cc1nc2ccc(-c3cc(N)nc(N)c3)nc2n1CCCC(F)(F)F [Example 71, 4-[2-methyl-3-(4,4,4-trifluorobutyl)-3H-imidazo[4,5-b]pyridin-5-yl]pyridine-2,6-diamine] | 0.006 | 0.016 | 0.006 | 0.006 |
| Cc1nc2ccc(-c3cc(N)nc(N)c3)nc2n1C1CC(F)(F)C1 [Example 101, 4-[3-(3,3-difluorocyclobutyl)-2-methyl-3H-imidazo[4,5-b]pyridin-5-yl]pyridine-2,6-diamine] | 0.007 | 0.016 | 0.006 | 0.003 |

More lines, now with the values ahead:

| IC50 [1] [µM] | IC50 [2] [µM] | IC50 [3] [µM] | IC50 [4] [µM] | SMILES |
| --- | --- | --- | --- | --- |
| 0.006 | 0.019 | 0.012 | 0.008 | Cc1nc2ccc(-c3cc(N)nc(N)c3)nc2n1C[C@@H](C)Oc1ccccc1 (single isomer, unassigned) [Example 106] |
| 0.005 | 0.015 | 0.006 | 0.006 | Cc1nc2ccc(-c3cc(N)nc(N)c3)nc2n1C1CC(F)C1 (stereo not shown) [Example 103, 4-[3-(3-fluorocyclobutyl)-2-methyl-3H-imidazo[4,5-b]pyridin-5-yl]pyridine-2,6-diamine] |
| 0.002 | 0.023 | 0.007 | 0.004 | CCn1c(C)nc2ccc(-c3cc(N)nc(N)c3)nc21 [Example 154, 4-(3-ethyl-2-methyl-3H-imidazo[4,5-b]pyridin-5-yl)pyridine-2,6-diamine] |
